Laboratory results as given in EP0019589A1, “Tripeptide derivatives and their use in a process for determining enzymes” (Pentapharm A.G., priority 1979, dated 1980).
Non-standard residues stand in square brackets, D forms with d. Residues, ends and D or L forms follow the SMILES beside them. *: point of attachment. Cha = N[C@@H](CC1CCCCC1)C(=O)O; dCha = N[C@H](CC1CCCCC1)C(=O)O; dPhg = N[C@@H](C(=O)O)c1ccccc1; pNA = O=[N+]([O-])c1ccc(N*)cc1; Chg = N[C@H](C(=O)O)C1CCCCC1; Phg = N[C@H](C(=O)O)c1ccccc1; Pip = O=C(O)[C@@H]1CCCCN1; dNva = CCC[C@@H](N)C(=O)O; dAbu = CC[C@@H](N)C(=O)O

How the values were obtained:
Assay type in all cases: biochemical
[1] = molecular target: T1, Urinkallikrein (Homo sapiens, UniProt P06870); test: Cleavage of chromogenic substrate by urinary kallikrein in human urine; conditions: 1 ml human urine (pooled morning urine of healthy persons), per min; Substratkonzentration 2 x 10^-4 molar
T1 construct: 1 ml Urin und 1 ml TRIS-Imidazol-Puffer mit pH 7,9; from tissue; host or cells: human urine
Experimental: 1. Bestimmung von Urinkallikrein.
1 ml Urin und 1 ml TRIS-Imidazol-Puffer mit pH 7,9 und Ionenstärke 1,0 werden 5 Min. bei 37°C inkubiert undcänn zentrifugiert, um Sedimente zu entfernen.
In einer-Plastikküvette werden 1,4 ml dest. H20 von 37°C und 0,4 ml des Zentrifugats gut gemischt. Zu dieser Mischung gibt man 0,2 ml einer 2 x 10^-3 molaren wässrigen Substratlösung und durchmischt die Komponenten schnell. Dieses Gemisch wird genau 15 Min. bei 37°C inkubiert. Dann wird dem Reaktionsgemisch 0,2 ml Eisessig zugemischt, um die Enzymreaktion zu unterbrechen. Zur Farbmessung verwendet man eine Vergleichsprobe (Blindprobe), die aus den gleichen Komponenten zusammengesetzt ist, wobei jedoch der Eisessig vor Zugabe des Substrates zugesetzt wird, um die Enzymreaktion zu verhindern. Dann wird bei 405 nm photometrisch oder spektrophotometrisch die Menge der gebildeten farbigen Verbindung RNH 2 aus der Differenz zwischen der Blindprobe und der zu bestimmenden Probe ermittelt. Aus dem ermittelten Wert wird die Urinkallikreinaktivität im Urin nach der folgenden Formel berechnet: [formula] • Δ OD = Zunahme der optischen Dichte bei 405 nm während 15 Min. • V = Totalvolumen des Bestimmungsansatzes = 2,2 ml • 1000 = Umrechnungsfaktor zur Umwandlung von U in mU • F = Verdünnungsfaktor des Urins (2) • v = Volumen der Probe = 0,4 ml • ε = Extinktionskoeffizient dividiert durch 1000 = 10,4
Bei der oben beschriebenen Bestimmungsmethode misst man somit die Summe der Aktivitäten von Urinkallikrein und Urokinase. Um die genaue Urinkallikreinaktivität zu erhalten, muss man die Urokinaseaktivität abziehen, welche dadurch bestimmt werden kann, dass man in einem Vergleichsversuch durch Zugabe von 0,075 Einheiten Trypsininhibitor (Trypsininhibitor aus Rinderlunge) pro ml Puffer die Urinkallikreinaktivität vollständig hemmt und nur die Urokinaseaktivität misst.
(§1) Bei der Messung des durch die enzymatische Hydrolyse des Substrates gebildeten Spaltproduktes RrNH2 geht man von der Voraussetzung aus, dass das Spaltprodukt ein UV-Spektrum besitzt, das von demjenigen des Substrates verschieden und in Richtung höherer Wellenlängen verschoben ist. Die Absorption des Substrates bei 405 nm ist praktisch Null. p-Nitroanilin als Spaltprodukt weist ein Absorptionsmaximum bei 380 nm und einen molaren Extinktionskoeffizienten von 13'200 auf. Bei 405 nm ist der Extinktionskoeffizient nur wenig niedriger, d.h. […] Der Grad der enzymatischen Hydrolyse des Substrates, welcher der Menge des abgespaltenen p-Nitroanilins proportional ist, lässt sich durch spektrophotometrische Messung bei 405 nm bestimmen. Auch bei Anwesenheit eines Ueberschusses an Substrat wird die Messung bei 405 nm nicht gestört.
(§2) Bei den Substraten, die als chromogene Gruppe eine 2-Naphthylamino-, 4-Methoxy-2-naphthylamino-, 4-Methyl-cumaryl-(7)-amino- oder 1,3-Di(methoxycarbonyl)-phenyl-(5)-amino-Gruppe enthalten, wird die Menge des Spaltproduktes R-NH2 durch Fluoreszenzspektrophotometrie gemessen. In einem aus Enzym, Puffer und Substrat bestehenden Testsystem misst man kontinuierlich das energieärmere emittierte Licht bei 400-470 nm, nachdem man das gebildete fluoreszierende Spaltprodukt mit energiereicherem Licht erregt hat. Die pro Zeiteinheit gebildete Menge Spaltprodukt ist ein Mass für die vorhandene Enzymaktivität. 1 µMol Spaltprodukt pro Minute entspricht definitionsgemäss 1 Enzym-Einheit, bezogen auf ein gegebenes Substrat.

[2] = molecular target: T2, Humanthrombin (Homo sapiens, UniProt P00734); test: Cleavage of chromogenic substrate by human NIH thrombin; conditions: 1 NIH-Einheit human thrombin, per min; Substratkonzentration 2 x 10^-4 molar
T2 construct: Humanplasmin und hu-manem NIH-Thrombin
Description: as §1, §2

[3] = molecular target: T3, Submandibularis-Kallikrein (Homo sapiens, UniProt P06870); test: Cleavage of chromogenic substrate by submandibular (glandular) kallikrein in human sputum; conditions: 1 ml human sputum, per min; Substratkonzentration 2 x 10^-4 molar
T3 construct: Man mischt 0,5 ml Sputum mit 2 ml TRIS-Imidazol-Puffer; from tissue; host or cells: human sputum
Experimental: 2. Bestimmung des Glandulärkallikreins im Sputum: • Man mischt 0,5 ml Sputum mit 2 ml TRIS-Imidazol-Puffer (Ionenstärke 1,0) und präinkubiert die Mischung 5 Min. bei 37°C. Das Inkubat wird zentrifugiert. In eine Testküvette wird 1,5 ml dest. H2O von 37°C vorgelegt und mit 0,25 ml des Zentrifugats versetzt. Die Komponenten werden gut gemischt. Dann wird 0,2 ml 2 x 10-^3 molare wässrige Substratlösung zugesetzt und gemischt. Dann wird bei 405 nm die Extinktions- änderung kontinuierlich mittels eines Schreibers während 5-10 Min. verfolgt. Aus dem ermittelten Δ OD pro Min. wird mittels der nachstehenden Formel die Kallikreinaktivität pro ml Sputum in mU errechnet: [formula] • F = 5 • V = 1,95 • v = 0,25 • 1 U (Einheit) = Enzymmenge, die während 1 Min. 1 µMol Substrat unter optimalen oder sonst festgelegten Bedingungen in Bezug auf pH, Ionenstärke, Temperatur und Substratkonzentration zu spalten vermag
as §1, with “gestört. […]” for “gestört.”

[4] = molecular target: T4, Humanplasmin (Homo sapiens, UniProt P00747); test: Cleavage of chromogenic substrate by human plasmin; conditions: 1 CU-Einheit human plasmin, per min; Substratkonzentration 2 x 10^-4 molar
T4 construct: da bei der Aktivierung aus 1 Molekül Plasminogen 1 Molekül Plasmin entsteht
Experimental: 3. Bestimmung von Plasmin:
Man mischt 1,7 ml TRIS-Imidazol-Puffer (pH 7,5, Ionenstärke 0,2) bei 37°C mit 0,1 ml einer Lösung von Plasmin in 25%igem Glycerin und inkubiert die Mischung während 1 Min. bei 37°C. Dann gibt man der Mischung 0,2 ml einer wässrigen 2 x 10^-3 molaren Substxatlösung von 37°C zu und durchmischt das Ganze schnell. Man ermittelt dann kontinuierlich die pro Zeiteinheit aus dem Substrat freigesetzte Menge des Spaltproduktes R-NH2. Aus dem pro Min. ermittelten Wert berechnet man dann die Plasminaktivität pro ml Probe in mU nach der folgenden Formel: [formula] • ΔE = pro Min. freigesetzte Menge des Spaltproduktes • V = Totalvolumen des Testansatzes • v = Volumen der Probe • = Extinktionskoeffizient dividiert durch 1000
as §1, §2

T4 sequence (P00747 581-810 limits assumed): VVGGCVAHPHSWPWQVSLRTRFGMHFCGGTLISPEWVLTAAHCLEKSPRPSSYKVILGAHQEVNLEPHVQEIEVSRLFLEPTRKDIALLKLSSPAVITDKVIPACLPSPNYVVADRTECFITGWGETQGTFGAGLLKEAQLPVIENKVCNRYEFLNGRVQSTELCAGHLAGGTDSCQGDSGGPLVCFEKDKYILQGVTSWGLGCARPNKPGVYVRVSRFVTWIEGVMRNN
T4 sequence (P00747 97-580 partner limits assumed): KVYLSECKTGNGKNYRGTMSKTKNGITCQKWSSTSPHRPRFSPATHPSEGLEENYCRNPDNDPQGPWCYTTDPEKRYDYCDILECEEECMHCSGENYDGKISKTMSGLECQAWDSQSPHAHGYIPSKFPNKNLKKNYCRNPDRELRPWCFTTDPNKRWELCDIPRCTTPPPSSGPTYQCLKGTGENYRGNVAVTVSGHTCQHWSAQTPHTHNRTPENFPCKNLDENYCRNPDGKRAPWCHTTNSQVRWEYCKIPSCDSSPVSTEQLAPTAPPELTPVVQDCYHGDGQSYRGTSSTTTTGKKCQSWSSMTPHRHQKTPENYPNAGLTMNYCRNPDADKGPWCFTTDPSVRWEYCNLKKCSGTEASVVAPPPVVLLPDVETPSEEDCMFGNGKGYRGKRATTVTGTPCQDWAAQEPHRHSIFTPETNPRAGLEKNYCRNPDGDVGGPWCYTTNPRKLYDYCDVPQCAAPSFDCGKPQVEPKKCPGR
T3 sequence (P06870 25-262): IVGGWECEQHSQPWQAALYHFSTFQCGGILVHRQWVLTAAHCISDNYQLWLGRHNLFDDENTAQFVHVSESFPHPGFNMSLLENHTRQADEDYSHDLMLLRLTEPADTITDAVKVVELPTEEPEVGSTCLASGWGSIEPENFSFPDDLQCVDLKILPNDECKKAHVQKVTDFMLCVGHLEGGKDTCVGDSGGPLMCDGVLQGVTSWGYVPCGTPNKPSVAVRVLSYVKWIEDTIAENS
T1 sequence (P06870 25-262): as above

SMILES | Menge des durch 1 ml Humanurin pro Min. freigesetzten Spaltproduktes R-NH2 in Nanomol (Urinkallikrein) [1] | Menge des durch 1 NIH-Einheit Thrombin pro Min. freigesetzten Spaltproduktes R-NH2 in Nanomol (Humanthrombin) [2] | Menge des durch 1 ml Humansputum pro Min. freigesetzten Spaltproduktes R-NH2 in Nanomol (Submandibularis-Kallikrein) [3] | Menge des durch 1 CU-Einheit Humanplasmin pro Min. freigesetzten Spaltproduktes R-NH2 in Nanomol (Humanplasmin) [4] [Nanomol]
CC[C@@H](N)C(=O)N[C@@H](CC1CCCCC1)C(=O)N[C@@H](CCCCN)C(=O)Nc1ccc([N+](=O)[O-])cc1 [Beispiel 72, 2HBr.H-D-But-CHA-Lys-pNA] (H-[dAbu]-[Cha]-Lys-pNA) | 2,22 Nanomol | 3,6 Nanomol | 21,0 Nanomol | 532
N=C(N)NCCC[C@H](NC(=O)[C@@H](NC(=O)[C@H](N)CC1CCCCC1)c1ccccc1)C(=O)Nc1ccc([N+](=O)[O-])cc1 [Beispiel 56, 2HBr.H-D-CHA-Ph'Gly-Arg-pNA] (H-[dCha]-[Phg]-Arg-pNA) | 0,64 Nanomol | 120,2 Nanomol | 29,4 Nanomol | 559
N=C(N)NCCC[C@H](NC(=O)[C@@H]1CCCCN1C(=O)[C@H](N)CC1CCCCC1)C(=O)Nc1ccc([N+](=O)[O-])cc1 [Beispiel 66, 2HBr.H-D-CHA-Pip-Arg-pNA] (H-[dCha]-[Pip]-Arg-pNA) | 0,53 Nanomol | 114,2 Nanomol | 9,8 Nanomol | 228
N=C(N)NCCC[C@H](NC(=O)[C@@H](NC(=O)[C@H](N)c1ccccc1)C1CCCCC1)C(=O)Nc1ccc([N+](=O)[O-])cc1 [Beispiel 62, 2HBr.H-D-Ph'Gly-CHG-Arg-pNA] (H-[dPhg]-[Chg]-Arg-pNA) | 0,25 Nanomol | 2,4 Nanomol | 7,2 Nanomol | 26
CCC[C@@H](N)C(=O)N[C@@H](Cc1ccc(O)cc1)C(=O)N[C@@H](CCCNC(=N)N)C(=O)Nc1ccc([N+](=O)[O-])cc1 [Beispiel 44, 2HBr.H-D-Nval-Tyr-Arg-pNA] (H-[dNva]-Tyr-Arg-pNA) | 0,42 Nanomol | 1,8 Nanomol | 4,9 Nanomol | 1219
N=C(N)NCCC[C@H](NC(=O)[C@H](CC1CCCCC1)NC(=O)[C@H](N)c1ccccc1)C(=O)Nc1ccc([N+](=O)[O-])cc1 [Beispiel 18, 2HBr.H-D-Ph'Gly-CHA-Arg-pNA] (H-[dPhg]-[Cha]-Arg-pNA) | 0,67 Nanomol | 4,53 Nanomol | 8,5 Nanomol | 1200
CC(C)C[C@@H](N)C(=O)N[C@@H](CC1CCCCC1)C(=O)N[C@@H](CCCCN)C(=O)Nc1ccc([N+](=O)[O-])cc1 [Beispiel 73, 2HBr.H-D-Leu-CHA-Lys-pNA] (H-[dL]-[Cha]-Lys-pNA) | 1,73 Nanomol | 3,4 Nanomol | 19,3 Nanomol | 778
NCCCC[C@H](NC(=O)[C@H](CC1CCCCC1)NC(=O)[C@H](N)c1ccccc1)C(=O)Nc1ccc([N+](=O)[O-])cc1 [Beispiel 33, 2AcOH.H-D-Ph'Gly-CHA-Lys-pNA] (H-[dPhg]-[Cha]-Lys-pNA) | 0,10 Nanomol | 0,4 Nanomol | 0,9 Nanomol | 837
CC(C)[C@@H](N)C(=O)N[C@@H](CC1CCCCC1)C(=O)N[C@@H](CCCNC(=N)N)C(=O)Nc1ccc([N+](=O)[O-])cc1 [Beispiel 12, 2HBr.H-D-Val-CHA-Arg-pNA] (H-[dV]-[Cha]-Arg-pNA) | 2,75 Nanomol | 4,0 Nanomol | 30,5 Nanomol | 421
CCC[C@@H](N)C(=O)N[C@@H](CC1CCCCC1)C(=O)N[C@@H](CCCNC(=N)N)C(=O)Nc1ccc([N+](=O)[O-])cc1 [Beispiel 38, 2HBr.H-D-Nval-CHA-Arg-pNA] (H-[dNva]-[Cha]-Arg-pNA) | 3,12 Nanomol | 5,1 Nanomol | 41,3 Nanomol | 969
CC(C)[C@@H](N)C(=O)N[C@@H](CC1CCC(O)CC1)C(=O)N[C@@H](CCCCN)C(=O)Nc1ccc([N+](=O)[O-])cc1 (stereo partly drawn) [Beispiel 34, 2AcOH.H-D-Val-CHT-Lys-pNA] | 1,40 Nanomol | 0,4 Nanomol | 16,5 Nanomol | 532
